Each compound was assayed against T1, human skin chymase (Homo sapiens, UniProt P23946) (assay: Enzyme-catalyzed hydrolysis assay (chymase inhibition)). Conditions: 10 nM enzyme, 0.7 mM Suc-Ala-Ala-Pro-Phe-pNa, pH 8.0, 37° C., 30 minutes.
T1 construct: using human skin chymase (Cortex Biochem); purchased Cortex Biochem
T1 sequence (P23946 22-247): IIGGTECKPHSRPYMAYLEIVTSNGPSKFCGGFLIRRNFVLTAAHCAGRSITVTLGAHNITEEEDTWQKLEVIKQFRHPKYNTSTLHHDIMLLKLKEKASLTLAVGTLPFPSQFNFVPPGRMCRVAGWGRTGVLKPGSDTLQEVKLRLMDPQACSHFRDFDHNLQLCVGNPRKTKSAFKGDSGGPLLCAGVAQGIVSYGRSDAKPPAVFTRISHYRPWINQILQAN
Format: biochemical
Description: Enzyme-catalyzed hydrolysis rates were measured spectro-photometrically using human skin chymase (Cortex Biochem), a chromogenic substrate (Suc-Ala-Ala-Pro-Phe-pNa) (Bachem) in aqueous buffer (450 mM Tris, 1800 mM NaCl, pH 8.0), and a microplate reader (Molecular Devices). […] Percent inhibition was calculated by comparing the initial reaction slopes of the samples without inhibitor to those with inhibitor. IC50 values were determined using a four parameter fit logistics model. The term “NT” indicates a compound that was not tested.

IC50	Compound
0.11 µM	CP(=O)(O)C(C(=O)Nc1cc2ccccc2o1)c1csc2ccc(Cl)cc12 (stereo not drawn) [Cpd 146]
5.94 ± 1.69 µM	O=C(Nc1cc2ccccc2cc1OCc1ccccc1)C(c1cccc2ccccc12)P(=O)(O)O (stereo not drawn) [Cpd 122, [(3-Benzyloxy-naphthalen-2-ylcarbamoyl)-naphthalen-1-yl-methyl]-phosphonic acid]
0.029 ± 0.01 µM	O=C(Nc1ccc2ccccc2c1)C(c1csc2ccc(F)cc12)P(=O)(O)O (stereo not drawn) [Cpd 10]
7.4 µM	O=C(Nc1ccc2[nH]ccc2c1)C(c1cccc2ccccc12)P(=O)(O)O (stereo not drawn) [Cpd 129]
0.92 ± 0.25 µM	O=C(Nc1ccc2cc(Br)ccc2c1)C(c1csc2ccc(Cl)cc12)P(=O)(O)O (stereo not drawn) [Cpd 67]
2.04 µM	O=C(Nc1cc2ccccc2cc1C(=O)N1CCC(c2ccccc2)C1)C(c1cccc2ccccc12)P(=O)(O)O (stereo not drawn) [Cpd 87]
7.9 µM	Nc1cc2ccccc2cc1NC(=O)C(c1cccc2ccccc12)P(=O)(O)O (stereo not drawn) [Cpd 132]
3.63 µM	O=C(Nc1cc2ccccc2cc1C(=O)N1CCC(S(=O)(=O)c2ccccc2)C1)C(c1cccc2ccccc12)P(=O)(O)O (stereo not drawn) [Cpd 103]
5.9 µM	O=C(Nc1cc2ccccc2cc1OCC=Cc1ccccc1)C(c1cccc2ccccc12)P(=O)(O)O (stereo not drawn) [Cpd 121]
5.86 ± 1.08 µM	NS(=O)(=O)OCC(C(=O)Nc1ccc2ccccc2c1)c1csc2ccc(Cl)cc12 (stereo not drawn) [Cpd 120, Sulfamic acid 2-(5-chloro-benzo[b]thiophen-3-yl)-2-(naphthalen-2-ylcarbamoyl)-ethyl ester]
5.4 µM	Cn1cc(C(C(=O)Nc2ccc3ccccc3c2)P(=O)(O)O)c2cccnc21 (stereo not drawn) [Cpd 116]
6.7 µM	O=C(Nc1cc2ccccc2cc1CNC1CCCC1)C(c1cccc2ccccc12)P(=O)(O)O (stereo not drawn) [Cpd 124]
6 ± 1.9 µM	CP(=O)(O)C(C(=O)NC=Cc1ccccc1NC(N)=O)c1csc2ccc(Cl)cc12 (stereo not drawn) [Cpd 158, {(5-Chloro-benzo[b]thiophen-3-yl)-[2-(2-ureido-phenyl)-vinylcarbamoyl]-methyl}-methyl-phosphinic acid]
0.0018 µM	O=C(NC=Cc1cc(F)cc(F)c1)C(c1csc2ccc(Cl)cc12)P(=O)(O)O (stereo not drawn) [Cpd 199]
4.4 µM	O=C(C=Cc1cc2ccccc2cc1NC(=O)C(c1cccc2ccccc12)P(=O)(O)O)NCc1ccccc1 (stereo not drawn) [Cpd 109, {[3-(2-Benzylcarbamoyl-vinyl)-naphthalen-2-ylcarbamoyl]-naphthalen-1-yl-methyl}-phosphonic acid]
0.43 ± 0.15 µM	O=C(Nc1ccc2ccccc2c1)C(c1csc2ccc(Cl)cc12)S(=O)(=O)O (stereo not drawn) [Cpd 50, [(5-Chloro-benzo[b]thiophen-3-yl)-(naphthalen-2-ylcarbamoyl)-methyl]-sulfonic acid]
0.52 ± 0.51 µM	O=C(Nc1ccc2sccc2c1)C(c1csc2ccc(Cl)cc12)P(=O)(O)O (stereo not drawn) [Cpd 55]
8.63 ± 0.81 µM	O=C(Nc1ccc2ccccc2c1)C(CO)c1csc2ccc(Cl)cc12 (stereo not drawn) [Cpd 136, 2-(5-Chloro-benzo[b]thiophen-3-yl)-3-hydroxy-N-naphthalen-2-yl-propionamide]
0.052 ± 0.015 µM	CP(=O)(O)C(C(=O)N/C=C/c1cccc(F)c1)c1csc2ccc(Cl)cc12 (stereo not drawn) [Cpd 15]
1.7 ± 0.21 µM	O=C(NC=Cc1ccc(C(F)(F)F)cc1)C(c1csc2ccc(Cl)cc12)P(=O)(O)O (stereo not drawn) [Cpd 81]
0.109 ± 0.03 µM	O=C(N/C=C/c1cccnc1)C(c1csc2ccc(Cl)cc12)P(=O)(O)O (stereo not drawn) [Cpd 25]
0.036 ± 0.05 µM	COc1cccc(/C=C/NC(=O)C(c2csc3ccc(Cl)cc23)P(C)(=O)O)c1 (stereo not drawn) [Cpd 154]
1.6 µM	O=C(Nc1ccc2ncccc2c1)C(c1cccc2ccccc12)P(=O)(O)O (stereo not drawn) [Cpd 79]
4.3 ± 0.03 µM	O=C(Nc1cc2ccccc2cc1CNCc1ccccc1)C(c1cccc2ccccc12)P(=O)(O)O (stereo not drawn) [Cpd 107]
9.5 µM	O=C(Nc1cc2ccccc2cc1NC(=O)C(c1cccc2ccccc12)P(=O)(O)O)C1CCN(C(=O)c2ccc3ccccc3c2)CC1 (stereo not drawn) [Cpd 141, [(3-{[1-(Naphthalene-2-carbonyl)-piperidine-4-carbonyl]-amino}-naphthalen-2-ylcarbamoyl)-naphthalen-1-yl-methyl]-phosphonic acid]
0.0387 ± 0.02 µM	CP(=O)(O)C(C(=O)N/C=C/c1cccc([N+](=O)[O-])c1)c1csc2ccc(Cl)cc12 (stereo not drawn) [Cpd 166]
7.3 µM	O=C(Nc1ccc2ccccc2c1)C(c1cccc2c1ccn2-c1ccccc1)P(=O)(O)O (stereo not drawn) [Cpd 128]
7.68 µM	O=C(Nc1cc2ccccc2cc1C(=O)N1CCCC1c1ccccc1)C(c1cccc2ccccc12)P(=O)(O)O (stereo not drawn) [Cpd 131]

IC50	Compound
4.45 µM	O=C(Nc1cc2ccccc2cc1NCCCCCc1ccccc1)C(c1cccc2ccccc12)P(=O)(O)O (stereo not drawn) [Cpd 110]
7 µM	CN(CCc1ccccc1)Cc1cc2ccccc2cc1NC(=O)C(c1cccc2ccccc12)P(=O)(O)O (stereo not drawn) [Cpd 126]
5.8 µM	O=C(NCc1ccccc1)c1cc2ccccc2cc1NC(=O)C(c1cccc2ccccc12)P(=O)(O)O (stereo not drawn) [Cpd 119, [(3-Benzylcarbamoyl-naphthalen-2-ylcarbamoyl)-naphthalen-1-yl-methyl]-phosphonic acid]
4.9 ± 1.34 µM	O=C(Nc1ccc2ccccc2c1OCC(=O)N1CCC(c2ccccc2)CC1)C(c1cccc2ccccc12)P(=O)(O)O (stereo not drawn) [Cpd 114, (Naphthalen-1-yl-{1-[2-oxo-2-(4-phenyl-piperidin-1-yl)-ethoxy]-naphthalen-2-ylcarbamoyl}-5 methyl)-phosphonic acid]
2.04 ± 0.19 µM	O=C(Nc1ccc2ccccc2c1)C(c1nnn[nH]1)c1csc2ccc(Cl)cc12 (stereo not drawn) [Cpd 88, 2-(5-Chloro-benzo[b]thiophen-3-yl)-n-naphthalen-2-yl-2-(1h-tetrazol-5-yl)-acetamide]
0.037 ± 0.01 µM	Cn1cc(C(C(=O)Nc2ccc3ccccc3c2)P(=O)(O)O)c2cc(F)ccc21 (stereo not drawn) [Cpd 11]
8.11 ± 4.75 µM	COC(=O)COc1c(NC(=O)C(c2cccc3ccccc23)P(=O)(O)O)ccc2ccccc12 (stereo not drawn) [Cpd 134, [2-(2-Naphthalen-1-yl-2-phosphono-acetylamino)-naphthalen-1-yloxy]-acetic acid methyl ester]
2.96 ± 1.18 µM	O=C(Nc1ccc2ccccc2c1)C(c1csc2cccc(Br)c12)P(=O)(O)O (stereo not drawn) [Cpd 99]
5.72 ± 0.013 µM	CP(=O)(O)C(C(=O)Nc1ccc2ccccc2c1)c1c(C(=O)O)sc2ccccc12 (stereo not drawn) [Cpd 118]
0.84 ± 0.19 µM	Cn1cc(C(C(=O)Nc2ccc3ccccc3c2)P(=O)(O)O)c2cc(C#N)ccc21 (stereo not drawn) [Cpd 65]
2.9 µM	Cn1cc(C(C(=O)Nc2ccc3ccccc3c2)P(=O)(O)O)c2cc(-c3ccc(F)cc3)ccc21 (stereo not drawn) [Cpd 98, [[5-(4-Fluoro-phenyl)-1-methyl-1H-indol-3-yl]-(naphthalen-2-ylcarbamoyl)-methyl]-phosphonic acid]
0.83 ± 0.08 µM	O=C(Nc1cc2ccccc2s1)C(c1cccc2ccccc12)P(=O)(O)O (stereo not drawn) [Cpd 64]
0.078 ± 0.03 µM	COc1cccc(/C=C/NC(=O)C(c2csc3ccc(Cl)cc23)P(C)(=O)O)c1OC (stereo not drawn) [Cpd 165]
2.32 µM	CN(C(=O)c1cc2ccccc2cc1NC(=O)C(c1cccc2ccccc12)P(=O)(O)O)C1CCCC1 (stereo not drawn) [Cpd 91]
0.055 ± 0.005 µM	CP(=O)(O)C(C(=O)N/C=C/c1cc(F)c(F)c(F)c1)c1csc2ccc(Cl)cc12 (stereo not drawn) [Cpd 16]
0.43 ± 0.09 µM	COc1ccc(C=CNC(=O)C(c2csc3ccc(Cl)cc23)P(=O)(O)O)cc1OC (stereo not drawn) [Cpd 49]
0.388 ± 0.116 µM	CN(C(=O)c1cc2ccccc2cc1NC(=O)C(c1cccc2ccccc12)P(=O)(O)O)C1CC=C(c2ccccc2)CC1 (stereo not drawn) [Cpd 46, ({3-[Methyl-(4-phenyl-cyclohex-3-enyl)-carbamoyl]-naphthalen-2-ylcarbamoyl}-naphthalen-1-yl-methyl)-phosphonic acid]
1.3 ± 0.61 µM	O=C(NCc1ccccc1)OCc1cc2ccccc2cc1NC(=O)C(c1cccc2ccccc12)P(=O)(O)O (stereo not drawn) [Cpd 72, [(3-Benzylcarbamoyloxymethyl-naphthalen-2-ylcarbamoyl)-naphthalen-1-yl-methyl]-phosphonic acid]
0.017 µM	CP(=O)(O)C(C(=O)N/C=C/c1cccc(F)c1F)c1csc2ccc(Cl)cc12 (stereo not drawn) [Cpd 163]
1.39 ± 0.554 µM	COc1ccc2c(c1)c(C(C(=O)Nc1ccc3ccccc3c1)P(=O)(O)O)cn2C (stereo not drawn) [Cpd 74]
4.62 µM	CN(Cc1ccccc1)C(=O)c1cc2ccccc2cc1NC(=O)C(c1cccc2ccccc12)P(=O)(O)O (stereo not drawn) [Cpd 111]
0.83 ± 0.18 µM	Cn1cc(C(C(=O)Nc2ccc3ccccc3c2)P(=O)(O)O)c2c(Cl)cccc21 (stereo not drawn) [Cpd 63, [(4-Chloro-1-methyl-1H-indol-3-yl)-(naphthalen-2-ylcarbamoyl)-methyl]-phosphonic acid]
6.6 µM	COC(=O)COc1cc2ccccc2cc1NC(=O)C(c1cccc2ccccc12)P(=O)(O)O (stereo not drawn) [Cpd 123]
8.66 µM	O=C(Nc1cc2ccccc2cn1)C(c1cccc2ccccc12)P(=O)(O)O (stereo not drawn) [Cpd 137]
0.02 µM	Cn1cc(C(C(=O)N/C=C/c2cccc(F)c2)P(C)(=O)O)c2cc(Cl)ccc21 (stereo not drawn) [Cpd 6]
0.93 ± 0.07 µM	O=C(Nc1cc2ccccc2cc1CNC1CCCCC1)C(c1cccc2ccccc12)P(=O)(O)O (stereo not drawn) [Cpd 70, [(3-Cyclohexylaminomethyl-naphthalen-2-ylcarbamoyl)-naphthalen-1-yl-methyl]-phosphonic acid]
0.08 ± 0.02 µM	CP(=O)(O)C(C(=O)N/C=C/c1ccccc1F)c1csc2ccc(Cl)cc12 (stereo not drawn) [Cpd 21]

Compound	IC50
({3-[(1-Benzoyl-piperidin-4-ylamino)-methyl]-naphthalen-2-ylcarbamoyl}-naphthalen-1-yl-methyl)-phosphonic acid [Cpd 44]	0.35 ± 0.22 µM
Nc1nc2ccc(NC(=O)C(c3csc4ccc(Cl)cc34)P(=O)(O)O)cc2s1 (stereo not drawn) [Cpd 69, [(5-Chloro-benzo[b]thiophen-3-yl)-(2-amino-4-benzothioazol-6-ylcarbamoyl)-methyl]-phosphonic acid]	0.93 ± 0.95 µM
